Measurements as given in article PMC8972069 (Nuclear medicine and biology, 2020).

Experiments:
[1] = biological target: Human recombinant S1PR5 lysophospholipid receptor membrane (Homo sapiens, UniProt Q9H228); experiment: [^32P]S1P competitive binding assay, S1PR5
[2] = biological target: T1, human recombinant S1PR4 lysophospholipid receptor membrane (Homo sapiens, UniProt O95977); experiment: [^32P]S1P competitive binding assay, S1PR4
T1 sequence (O95977 1-384): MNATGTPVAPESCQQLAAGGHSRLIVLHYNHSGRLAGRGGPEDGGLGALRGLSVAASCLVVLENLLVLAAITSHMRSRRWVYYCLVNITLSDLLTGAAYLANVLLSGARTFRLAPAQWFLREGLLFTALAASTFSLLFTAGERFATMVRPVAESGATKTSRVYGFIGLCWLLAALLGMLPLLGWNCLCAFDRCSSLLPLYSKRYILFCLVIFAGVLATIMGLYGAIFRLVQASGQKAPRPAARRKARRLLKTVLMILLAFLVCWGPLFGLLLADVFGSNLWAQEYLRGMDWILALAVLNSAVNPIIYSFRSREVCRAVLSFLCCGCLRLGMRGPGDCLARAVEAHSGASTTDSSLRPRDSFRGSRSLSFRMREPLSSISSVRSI

[3] = biological target: Human recombinant S1PR1 lysophospholipid receptor membrane (Homo sapiens, UniProt P21453); experiment: [^32P]S1P competitive binding assay, S1PR1
[4] = biological target: Human recombinant S1PR3 lysophospholipid receptor membrane (Homo sapiens, UniProt Q99500); experiment: [^32P]S1P competitive binding assay, S1PR3

Measured: IC50

Sequence of Human recombinant S1PR1 lysophospholipid receptor membrane (P21453 whole entry): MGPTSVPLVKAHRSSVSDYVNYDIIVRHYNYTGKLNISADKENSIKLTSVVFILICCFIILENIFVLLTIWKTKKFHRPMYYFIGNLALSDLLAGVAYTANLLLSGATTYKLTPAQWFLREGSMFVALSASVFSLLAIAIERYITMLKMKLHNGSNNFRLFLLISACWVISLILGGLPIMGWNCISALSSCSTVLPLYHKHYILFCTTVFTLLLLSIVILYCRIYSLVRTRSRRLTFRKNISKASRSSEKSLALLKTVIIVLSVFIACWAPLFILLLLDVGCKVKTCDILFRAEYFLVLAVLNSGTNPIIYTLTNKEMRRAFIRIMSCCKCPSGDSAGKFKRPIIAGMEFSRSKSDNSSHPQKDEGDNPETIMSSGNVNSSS
Sequence of Human recombinant S1PR3 lysophospholipid receptor membrane (Q99500 whole entry): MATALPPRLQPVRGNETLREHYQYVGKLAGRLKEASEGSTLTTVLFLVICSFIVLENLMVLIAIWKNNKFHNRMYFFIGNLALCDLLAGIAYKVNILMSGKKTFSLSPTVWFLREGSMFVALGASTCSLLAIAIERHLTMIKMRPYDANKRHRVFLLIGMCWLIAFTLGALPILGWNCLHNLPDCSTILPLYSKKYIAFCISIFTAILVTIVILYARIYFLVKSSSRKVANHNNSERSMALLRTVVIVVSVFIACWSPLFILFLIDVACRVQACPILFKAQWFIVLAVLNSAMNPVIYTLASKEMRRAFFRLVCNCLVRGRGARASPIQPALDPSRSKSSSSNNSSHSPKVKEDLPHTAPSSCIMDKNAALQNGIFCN
Sequence of Human recombinant S1PR5 lysophospholipid receptor membrane (Q9H228 whole entry): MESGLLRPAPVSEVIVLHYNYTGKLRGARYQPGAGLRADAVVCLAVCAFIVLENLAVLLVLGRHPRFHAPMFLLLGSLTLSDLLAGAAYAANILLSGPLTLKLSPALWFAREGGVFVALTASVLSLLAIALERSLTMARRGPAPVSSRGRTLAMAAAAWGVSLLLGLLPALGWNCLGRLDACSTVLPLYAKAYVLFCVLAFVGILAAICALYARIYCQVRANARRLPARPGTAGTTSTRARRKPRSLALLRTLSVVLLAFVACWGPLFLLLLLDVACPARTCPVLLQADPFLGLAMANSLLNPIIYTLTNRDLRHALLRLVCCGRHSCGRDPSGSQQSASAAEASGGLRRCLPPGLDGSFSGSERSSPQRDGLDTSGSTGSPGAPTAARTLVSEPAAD

COc1ccc(NC(=O)Cn2c(=O)c3ccccc3n(CC(=O)Nc3cc(I)c(OC)cc3OC)c2=O)cc1 [TZ6544, N-(5-iodo-2,4-dimethoxyphenyl)-2-(3-(2-((4-methoxyphenyl)amino)-2-oxoethyl)-2,4-dioxo-3,4-dihydroquinazolin-1(2H)-yl)acetamide]
> 1000 nM: all assays above
